# Source: patent US20090054392A1, “NAPHTHYLPYRIMIDINE, NAPHTHYLPYRAZINE AND NAPHTHYLPYRIDAZINE ANALOGS AND THEIR USE AS AGONISTS OF THE WNT-BETA-CATENIN CELLULAR MESSAGING SYSTEM” (Wyeth, priority 2007, published 2009)
# Test system: Dkk1-LRP5-TCF-Luciferase
# Assay: Functional Dkk1-LRP5-TCF-Luciferase Assay in U2OS Cells
# Conditions: for fold induction at 2 µM / fold induction at 20 µM / EC50: Homo sapiens, U2OS; for fold induction at 2 µM: read-out: B = TCF ACTIVITY/DMSO CONTROL Fold induction @ 2.0 uM, 2.0 uM compound; for fold induction at 20 µM: read-out: C = TCF ACTIVITY/DMSO CONTROL Fold induction @ 20.0 uM, 20.0 uM compound; for A = MAX FOLD Induction/DMSO CONTROL: maximum fold induction over DMSO control
Compound,fold induction at 2 µM,fold induction at 20 µM,EC50,A = MAX FOLD Induction/DMSO CONTROL
"N[C@H]1CCN([C@@H]2CCN(c3nccc(-c4ccc5ccccc5c4)n3)C2)C1 [(3S,3′R)-1′-[4-(2-naphthyl)pyrimidin-2-yl]-1,3′-bipyrrolidin-3-amine]",1.2,,,
"O[C@H]1CCN([C@@H]2CCN(c3nccc(-c4ccc5ccccc5c4)n3)C2)C1 [(3S,3′R)-1′-[4-(2-naphthyl)pyrimidin-2-yl]-1,3′-bipyrrolidin-3-ol]",,3,,
"CN(C)[C@H]1CCN([C@@H]2CCN(c3nccc(-c4ccc5ccccc5c4)n3)C2)C1 [(3S,3′R)-N,N-dimethyl-1′-[4-(2-naphthyl)pyrimidin-2-yl]-1,3′-bipyrrolidin-3-amine]",2.64,,1.11 µM,3.175 fold
"O[C@H]1CCN([C@H]2CCN(c3nccc(-c4ccc5ccccc5c4)n3)C2)C1 [(3S,3′S)-1′-[4-(2-naphthyl)pyrimidin-2-yl]-1,3′-bipyrrolidin-3-ol]",2.1,,,
"CN(C)[C@H]1CCN([C@H]2CCN(c3nccc(-c4ccc5ccccc5c4)n3)C2)C1 [(3S,3′S)-N,N-dimethyl-1′-[4-(2-naphthyl)pyrimidin-2-yl]-1,3′-bipyrrolidin-3-amine]",2.47,0.02,,2.030 fold
"c1ccc2cc(-c3ccnc(N4C[C@H]5CNC[C@H]5C4)n3)ccc2c1 [(3aR*,6aS*)-2-[4-(2-naphthyl)pyrimidin-2-yl]octahydropyrrolo[3,4-c]pyrrole]",1.73,0.01,,
"c1ccc2cc(-c3ccnc(N4CC[C@@H]5CNC[C@@H]5C4)n3)ccc2c1 [(3aR,7aS)-5-[4-(2-naphthyl)pyrimidin-2-yl]octahydro-1H-pyrrolo[3,4-c]pyridine]",1.8,,,
"O=C1CCCN1[C@@H]1CCN(c2nccc(-c3ccc4ccccc4c3)n2)C1 [(3′R)-1′-[4-(2-naphthyl)pyrimidin-2-yl]-1,3′-bipyrrolidin-2-one]",1.43,2.12,4.51 µM,1.935 fold
"c1ccc2cc(-c3ccnc(N4CC[C@@H](N5CCCC5)C4)n3)ccc2c1 [(3′R)-1′-[4-(2-naphthyl)pyrimidin-2-yl]-1,3′-bipyrrolidine]",1.38,2.62,,2.760 fold
"O=C1CCCN1[C@H]1CCN(c2nccc(-c3ccc4ccccc4c3)n2)C1 [(3′S)-1′-[4-(2-naphthyl)pyrimidin-2-yl]-1,3′-bipyrrolidin-2-one]",3.04,3.62,0.189 µM,2.290 fold
"c1ccc2cc(-c3ccnc(N4CC[C@H](N5CCCC5)C4)n3)ccc2c1 [(3′S)-1′-[4-(2-naphthyl)pyrimidin-2-yl]-1,3′-bipyrrolidine]",1.45,0.83,,
"O=C1N[C@H](C2CCN(c3nccc(-c4ccc5ccccc5c4)n3)CC2)CO1 [(4R)-4-{1-[4-(2-naphthyl)pyrimidin-2-yl]piperidin-4-yl}-1,3-oxazolidin-2-one]",1.4,0.01,,
"CC1(C)OC(=O)N[C@@H]1C1CCN(c2nccc(-c3ccc4ccccc4c3)n2)CC1 [(4R)-5,5-dimethyl-4-{1-[4-(2-naphthyl)pyrimidin-2-yl]piperidin-4-yl}-1,3-oxazolidin-2-one]",1.98,1.39,,1.585 fold
NCC1CCCN(c2nccc(-c3ccc4ccccc4c3)n2)C1 (stereo not drawn) [({1-[4-(2-naphthyl)pyrimidin-2-yl]piperidin-3-yl}methyl)amine],2.9,0.005,2.68 µM,5.433 fold
NCC1CCN(c2nccc(-c3ccc4ccccc4c3)n2)CC1 [({1-[4-(2-naphthyl)pyrimidin-2-yl]piperidin-4-yl}methyl)amine],2.23,0.143,1.98 µM,3.390 fold
"CC(C)C(=O)N(C)CCN(C)[C@@H]1CCN(c2nccc(-c3ccc4ccccc4c3)n2)C1 [N,2-dimethyl-N-[2-(methyl{(3R)-1-[4-(2-naphthyl)pyrimidin-2-yl]pyrrolidin-3-yl}amino)ethyl]propanamide]",,1.5,,
"CN(CCN(C)S(=O)(=O)N(C)C)[C@@H]1CCN(c2nccc(-c3ccc4ccccc4c3)n2)C1 [N,N,N′-trimethyl-N′-[2-(methyl{(3R)-1-[4-(2-naphthyl)pyrimidin-2-yl]pyrrolidin-3-yl}amino)ethyl]sulfamide]",1.3,,,
"CN(C)CCN(C)[C@@H]1CCN(c2nccc(-c3ccc4ccccc4c3)n2)C1 [N,N,N′-trimethyl-N′-{(3R)-1-[4-(2-naphthyl)pyrimidin-2-yl]pyrrolidin-3-yl}ethane-1,2-diamine]",2.4,,,
"CN(C)CCCN(C)[C@@H]1CCN(c2nccc(-c3ccc4ccccc4c3)n2)C1 [N,N,N′-trimethyl-N′-{(3R)-1-[4-(2-naphthyl)pyrimidin-2-yl]pyrrolidin-3-yl}propane-1,3-diamine]",1.3,,,

Compound,fold induction at 2 µM,fold induction at 20 µM,EC50,A = MAX FOLD Induction/DMSO CONTROL
"CN(C)CCN(C)[C@H]1CCN(c2nccc(-c3ccc4ccccc4c3)n2)C1 [N,N,N′-trimethyl-N′-{(3S)-1-[4-(2-naphthyl)pyrimidin-2-yl]pyrrolidin-3-yl}ethane-1,2-diamine]",1.2,,,
"CN(C)CCCN(C)[C@H]1CCN(c2nccc(-c3ccc4ccccc4c3)n2)C1 [N,N,N′-trimethyl-N′-{(3S)-1-[4-(2-naphthyl)pyrimidin-2-yl]pyrrolidin-3-yl}propane-1,3-diamine]",2,,,
"CCN(CC)C1CCN(c2nccc(-c3ccc4ccccc4c3)n2)C1 (stereo not drawn) [N,N-diethyl-1-[4-(2-naphthyl)pyrimidin-2-yl]pyrrolidin-3-amine]",1.06,2.67,28.2 µM,3.680 fold
"CCN(CC)c1nccc(-c2ccc3ccccc3c2)n1 [N,N-diethyl-4-(2-naphthyl)pyrimidin-2-amine]",1.75,1.68,,1.260 fold
"CCN(CC)C(=O)N1CCC(CNc2nccc(-c3ccc4ccccc4c3)n2)CC1 [N,N-diethyl-4-({[4-(2-naphthyl)pyrimidin-2-yl]amino}methyl)piperidine-1-carboxamide]",1.22,1.04,,
"CCN(CC)C(=O)N1CCCN(c2nccc(-c3ccc4ccccc4c3)n2)CC1 [N,N-diethyl-4-[4-(2-naphthyl)pyrimidin-2-yl]-1,4-diazepane-1-carboxamide]",,1.49,30 µM,3.070 fold
"CCN(CC)C(=O)N1CCC(Nc2nccc(-c3ccc4ccccc4c3)n2)CC1 [N,N-diethyl-4-{[4-(2-naphthyl)pyrimidin-2-yl]amino}piperidine-1-carboxamide]",1.65,,,
"CCN(CC)C(=O)N1CCC(N(C)c2nccc(-c3ccc4ccccc4c3)n2)CC1 [N,N-diethyl-4-{methyl[4-(2-naphthyl)pyrimidin-2-yl]amino}piperidine-1-carboxamide]",0.86,1.32,,
"CCN(CC)C(=O)NCCC1CCN(c2nccc(-c3ccc4ccccc4c3)n2)CC1 [N,N-diethyl-N′-(2-{1-[4-(2-naphthyl)pyrimidin-2-yl]piperidin-4-yl}ethyl)urea]",1.13,0.33,,
"CCN(CC)C(=O)N[C@@H]1CCN(c2nccc(-c3ccc4ccccc4c3)n2)C1 [N,N-diethyl-N′-{(3R)-1-[4-(2-naphthyl)pyrimidin-2-yl]pyrrolidin-3-yl}urea]",1.22,1.8,,1.270 fold
"CCN(CC)C(=O)N[C@H]1CCN(c2nccc(-c3ccc4ccccc4c3)n2)C1 [N,N-diethyl-N′-{(3S)-1-[4-(2-naphthyl)pyrimidin-2-yl]pyrrolidin-3-yl}urea]",1.83,,,
"CN(C)C(=O)[C@H]1CCCN1c1nccc(-c2ccc3ccccc3c2)n1 [N,N-dimethyl-1-[4-(2-naphthyl)pyrimidin-2-yl]-D-prolinamide]",1.02,1.2,,
"CN(C)C(=O)[C@@H]1CCCN1c1nccc(-c2ccc3ccccc3c2)n1 [N,N-dimethyl-1-[4-(2-naphthyl)pyrimidin-2-yl]-L-prolinamide]",1,1.24,,
"CN(C)C1CCN(c2nccc(-c3ccc4ccccc4c3)n2)C1 (stereo not drawn) [N,N-dimethyl-1-[4-(2-naphthyl)pyrimidin-2-yl]pyrrolidin-3-amine]",2,1.91,4.11 µM,5.503 fold
"CN(C)CC1CCN(c2nccc(-c3ccc4ccccc4c3)n2)CC1 [N,N-dimethyl-1-{1-[4-(2-naphthyl)pyrimidin-2-yl]piperidin-4-yl}methanamine]",1.85,,,
"CN(C)C[C@H]1CCN(c2nccc(-c3ccc4ccccc4c3)n2)C1 [N,N-dimethyl-1-{(3R)-1-[4-(2-naphthyl)pyrimidin-2-yl]pyrrolidin-3-yl}methanamine]",2.83,0.01,1.02 µM,3.620 fold
"CN(C)C[C@@H]1CCN(c2nccc(-c3ccc4ccccc4c3)n2)C1 [N,N-dimethyl-1-{(3S)-1-[4-(2-naphthyl)pyrimidin-2-yl]pyrrolidin-3-yl}methanamine]",2.26,2.26,,3.620 fold
"CN(C)CCN1CCN(c2nccc(-c3ccc4ccccc4c3)n2)CC1 [N,N-dimethyl-2-{4-[4-(2-naphthyl)pyrimidin-2-yl]piperazin-1-yl}ethanamine]",2.55,0.01,,2.440 fold
